This passage reports EC50, half-life and CC50 results from patent publication US20240417411A1, “COMPOUNDS AND METHODS FOR TREATMENT OF VIRAL INFECTIONS” (priority 2023, published 2024).

The subject of one data set is RSV-Luc5. Nature of the data set: microbe, parasite or virus in culture. The following applies: human respiratory syncytial virus, NHBE, 72 h, read-out: RSV NHBE EC50 (nM). It counts as cell-based.
Data set [1] is described as follows: in vitro. It counts as in vitro ADME. Conditions: human, s9, pH 7.4. Here is the method: Example D: GI S9 Stability […] The S9 metabolic reactions were initiated by the addition of the substrates to the S9 reaction mixture to a final concentration of 2 μM. […] Aliquots ([…]) of the diluted supernatant were analyzed on a Thermo Q-Exactive mass spectrometer as described below. Example F: Liquid Chromatography/Mass Spectroscopy Methods for S9 and Plasma Stability Quantification of test compounds, Reference Compound A (S9 stability assay nucleoside metabolite), and controls was performed by analyte/internal standard peak area ratio (PAR) values measured on a Thermo Q-Exactive mass spectrometer coupled to a Dionex UltiMate 3000 HPLC with a Leap Technologies HTC PAL autosampler. […] Mobile phase A consisted of 0.1% (v/v) formic acid in water. Mobile phase B consisted of 0.1% (v/v) formic acid in acetonitrile. Elution of analytes was achieved by a series of linear gradients of acetonitrile in water containing 0.10% (v/v) formic acid. The mass spectrometer was calibrated on a weekly basis and mass tolerance of 5 ppm was used.

Data set [2] can be described thus: in vitro. Conditions: human. It counts as cell-based. Here is the method:
Example C: CC50 MT4 Cytotoxicity of the compounds was determined in uninfected cells using the cell viability reagent in a similar fashion as described before for other cell types ([…] et al., Antimicrob Agents Chemother. 2008,52(2):655-65). […] Cells were cultured for 4-5 days at 37° C. Following the incubation, the cells were allowed to equilibrate to 25° C., and cell viability was determined by adding Cell-Titer Glo viability reagent. The mixture was incubated for 10 min, and the luminescence signal was quantified using an Envision plate reader. Untreated cell and cells treated at 2 μM puromycin (Sigma, St. Louis, MO) serve as 100% and 0% cell viability control, respectively. The percent of cell viability was calculated for each tested compound concentration relative to the 0% and 100% controls and the CC50 value was determined by non-linear regression as a compound concentration reducing the cell viability by 50%.

The subject of the next data set is SARS-CoV2-NLuc. Nature of the data set: microbe, parasite or virus in culture. Conditions: Severe acute respiratory syndrome coronavirus 2, 48 h, read-out: SARS-CoV2 EC50 (nM). It counts as cell-based, SARS Coronavirus 2.

For `CC1(C)CC(=O)O[C@H]2[C@@H](OC(=O)C1)[C@](C#N)(c1ccc3c(N)ncnn13)O[C@@H]2COC(=O)O[C@H]1C(C)(C)[C@H]2CC[C@@]1(C)C2` [Compound C45, ((7aR,8R,10R,10aR)-10-(4-aminopyrrolo[2,1-f][1,2,4]triazin-7-yl)-10-cyano-4,4-dimethyl-2,6-dioxooctahydro-2H-furo[3,4-b][1,4]dioxonin-8-yl)methyl ((1S,2R,4S)-1,3,3-trimethylbicyclo[2.2.1]heptan-2-yl) carbonate], the EC50 (as a rule, the concentration needed to bring the measured effect to its halfway point) in the data set with RSV-Luc5 was 4160 nM; in the data set with SARS-CoV2-NLuc it was 9170 nM. Besides, the half-life (in general, the time needed for the level to fall by half in the phase considered) at 2 μM in the data set “in vitro [1]” was found to be 37.3 min. In addition, it took 12.6 µM to reach half-maximal cytotoxicity in “in vitro [2]” (CC50).
On the same counts, the results for `CC1(C)CC(=O)O[C@H]2[C@@H](OC(=O)C1)[C@](C#N)(c1ccc3c(N)ncnn13)O[C@@H]2COC(=O)OCCN1CCOCC1` [Compound C36, ((7aR,8R,10R,10aR)-10-(4-aminopyrrolo[2,1-f][1,2,4]triazin-7-yl)-10-cyano-4,4-dimethyl-2,6-dioxooctahydro-2H-furo[3,4-b][1,4]dioxonin-8-yl)methyl (2-morpholinoethyl) carbonate] are above 50000 nM, above 50000 nM, 31.6 min and above 50 µM.
In “in vitro [1]”, `CC(C)OC(=O)OC[C@H]1O[C@@](C#N)(c2ccc3c(N)ncnn23)C2OC(=O)CCC(=O)OC21` (stereo partly drawn) [Compound C1, ((7R,9R)-9-(4-aminopyrrolo[2,1-f][1,2,4]triazin-7-yl)-9-cyano-2,5-dioxooctahydrofuro[3,4-b][1,4]dioxocin-7-yl)methyl isopropyl carbonate] displayed a half-life at 2 μM of 0.716 min. Further, the CC50 (commonly the concentration giving 50% cytotoxicity) in “in vitro [2]” was above 50 µM.
As for `CC1(C)CC(=O)O[C@H]2[C@@H](OC(=O)C1)[C@](C#N)(c1ccc3c(N)ncnn13)O[C@@H]2COC(=O)OC(C)(C)c1ccncc1` [Compound C34, ((7aR,8R,10R,10aR)-10-(4-aminopyrrolo[2,1-f][1,2,4]triazin-7-yl)-10-cyano-4,4-dimethyl-2,6-dioxooctahydro-2H-furo[3,4-b][1,4]dioxonin-8-yl)methyl (2-(pyridin-4-yl)propan-2-yl) carbonate], the EC50 is above 50000 nM in the data set with RSV-Luc5 and 8120 nM in the data set on SARS-CoV2-NLuc. Also, the half-life at 2 μM in the data set “in vitro [1]” turned out to be 44.7 min. Besides, the CC50 in the data set “in vitro [2]” was above 50 µM.
`CC(C)OC(=O)OC[C@H]1O[C@@](C#N)(c2ccc3c(N)ncnn23)[C@@H]2OC(=O)CCCCCCC(=O)O[C@@H]21` [Compound C5, ((10aR,11R,13R,13aR)-13-(4-aminopyrrolo[2,1-f][1,2,4]triazin-7-yl)-13-cyano-2,9-dioxododecahydrofuro[3,4-b][1,4]dioxacyclododecin-11-yl)methyl isopropyl carbonate] displayed a half-life at 2 μM in “in vitro [1]” of 0.754 min. In the data set “in vitro [2]”, this compound gave a CC50 above 50 µM.
For the compound `N#C[C@@]1(c2ccc3c(N)ncnn23)O[C@H](COC(=O)OC2CNC2)[C@H]2OC(=O)CCCC(=O)O[C@H]21` [Compound C50, ((7aR,8R,10R,10aR)-10-(4-aminopyrrolo[2,1-f][1,2,4]triazin-7-yl)-10-cyano-2,6-dioxooctahydro-2H-furo[3,4-b][1,4]dioxonin-8-yl)methyl azetidin-3-yl carbonate 2,2,2-trifluoroacetate], the values for the concentration for a half-maximal effect (EC50) in the data set on RSV-Luc5 and in the data set on SARS-CoV2-NLuc were 14500 nM and 3110 nM, respectively. The half-life at 2 μM in the data set “in vitro [1]” came out at 1.91 min. In “in vitro [2]”, this compound yielded a CC50 above 50 µM.
In the case of `CCC(CC)COC(=O)OC[C@H]1O[C@@](C#N)(c2ccc3c(N)ncnn23)[C@@H]2OC(=O)CC(C)(C)CC(=O)O[C@@H]21` [Compound C38, ((7aR,8R,10R,10aR)-10-(4-aminopyrrolo[2,1-f][1,2,4]triazin-7-yl)-10-cyano-4,4-dimethyl-2,6-dioxooctahydro-2H-furo[3,4-b][1,4]dioxonin-8-yl)methyl (2-ethylbutyl) carbonate], the EC50 in the data set on RSV-Luc5 was above 50000 nM; with SARS-CoV2-NLuc it was 38300 nM. The same compound displayed a half-life at 2 μM in “in vitro [1]” of 7.17 min. It took 30.9 µM to reach half-maximal cytotoxicity in the data set “in vitro [2]” (CC50).
Regarding `CC(C)(C)COC(=O)OC[C@H]1O[C@@](C#N)(c2ccc3c(N)ncnn23)[C@@H]2OC(=O)CC(C)(C)CC(=O)O[C@@H]21` [Compound C46, ((7aR,8R,10R,10aR)-10-(4-aminopyrrolo[2,1-f][1,2,4]triazin-7-yl)-10-cyano-4,4-dimethyl-2,6-dioxooctahydro-2H-furo[3,4-b][1,4]dioxonin-8-yl)methyl neopentyl carbonate], the EC50 is 11700 nM in the data set with RSV-Luc5 and above 50000 nM in the data set on SARS-CoV2-NLuc. The same compound gave a half-life at 2 μM in “in vitro [1]” of 4.71 min. For the same compound, the CC50 in “in vitro [2]” was above 50 µM.
In the data set “in vitro [1]”, `N#C[C@@]1(c2ccc3c(N)ncnn23)O[C@H](CO)[C@H]2OC(=O)CCCC(=O)O[C@H]21` [Compound C10, (7aR,8R,10R,10aR)-8-(4-aminopyrrolo[2,1-f][1,2,4]triazin-7-yl)-10-(hydroxymethyl)-2,6-dioxooctahydro-2H-furo[3,4-b][1,4]dioxonine-8-carbonitrile] registered a half-life at 2 μM of 0.768 min. Further, the CC50 in the data set “in vitro [2]” was above 50 µM.
Regarding `CC1(C)CC(=O)O[C@H]2[C@@H](OC(=O)C1)[C@](C#N)(c1ccc3c(N)ncnn13)O[C@@H]2COC(=O)OC1CNC1` [Compound C51, ((7aR,8R,10R,10aR)-10-(4-aminopyrrolo[2,1-f][1,2,4]triazin-7-yl)-10-cyano-4,4-dimethyl-2,6-dioxooctahydro-2H-furo[3,4-b][1,4]dioxonin-8-yl)methyl azetidin-3-yl carbonate 2,2,2-trifluoroacetate], the EC50 in the data set on RSV-Luc5 and with SARS-CoV2-NLuc was above 50000 nM in each case. The half-life at 2 μM in “in vitro [1]” was determined as 26.6 min. Moreover, in “in vitro [2]”, the CC50 was above 50 µM.
For `CC1(C)[C@H]2CC[C@@](C)(C2)[C@H]1OC(=O)OC[C@H]1O[C@@](C#N)(c2ccc3c(N)ncnn23)[C@@H]2OC(=O)CCCC(=O)O[C@@H]21` [Compound C28, ((7aR,8R,10R,10aR)-10-(4-aminopyrrolo[2,1-f][1,2,4]triazin-7-yl)-10-cyano-2,6-dioxooctahydro-2H-furo[3,4-b][1,4]dioxonin-8-yl)methyl ((1S,2R,4S)-1,3,3-trimethylbicyclo[2.2.1]heptan-2-yl) carbonate], the EC50 amounted to 7110 nM in the data set with RSV-Luc5 and 21700 nM in the data set with SARS-CoV2-NLuc. Besides, the half-life at 2 μM in “in vitro [1]” was determined as 0.595 min. Moreover, it took 18 µM to reach half-maximal cytotoxicity in the data set “in vitro [2]” (CC50).
As for `CC1(C)CC(=O)O[C@H]2[C@@H](OC(=O)C1)[C@](C#N)(c1ccc3c(N)ncnn13)O[C@@H]2COC(=O)OC(C)(C)C(F)F` [Compound C42, ((7aR,8R,10R,10aR)-10-(4-aminopyrrolo[2,1-f][1,2,4]triazin-7-yl)-10-cyano-4,4-dimethyl-2,6-dioxooctahydro-2H-furo[3,4-b][1,4]dioxonin-8-yl)methyl (1,1-difluoro-2-methylpropan-2-yl) carbonate], the EC50 in the data set on RSV-Luc5 and in the data set with SARS-CoV2-NLuc was above 50000 nM each time. Also, the half-life at 2 μM in “in vitro [1]” turned out to be 27.7 min. This compound gave a CC50 in “in vitro [2]” above 50 µM.
